This is an account of results in patent US20040209799A1, “JAK/STAT pathway inhibitors and the uses thereof” (priority 2000, published 2004).

The test system of assay [1] is rhIL-1β-induced mRNAs in human articular chondrocytes. The experiment in a line: northern blot, rhIL-1β-induced mRNAs, comparison of DBH forms (some mRNAs, not named). In kind it is cell-based. The note with it: 5 μM, for some mRNAs. The protocol:
(§1) Frozen human articular chondrocyte cell strain HC30-0198 (described in Example 1) was thawed, and cultured in monolayer in T150 tissue culture flasks (Corning Costar, Cambridge, Mass.) as described above to 1-5 days post-confluence. Test cultures were rinsed in PBS, and preincubated for 2 hours with 10 ml of serum-free DMEM containing 5 μM DBH (synthetic), in its free base or trifluoroacetic acid salt form. An additional 10 ml of serum-free DMEM containing 5 μM DBH, 4 ng/ml recombinant human interleukin-1β (rhIL-1β; final concentration of 2 ng/ml) (R&D Systems, Minneapolis, Minn.), and 2% antibiotic solution (final concentration of 1%), were then added for 24 hours.
(§2) Two control cultures were run in parallel: one without DBH (rhIL-1β alone), and another without DBH or rhIL-1β.
(§3) Total RNA was fixed to the membrane using a Stratalinker® 1800 UV Crosslinker (Stratagene, La Jolla, Calif.). […]
(§4) The blot was successively washed two times in 2×SSC/0.05% SDS (15 min/wash at room temperature), and two times in 0.1×SSC/0.1% SDS (30 minutes/wash at 65° C.). The blot was allowed to air dry, and the radioactive signal was visualized and quantified using a Fujifilm, BAS-1500 phosphorimager (Fuji, Stamford, Conn.). […]

Assay [2] addresses BTK (Bruton's agarnrnaglobulinaemia tyrosine kinase) (Homo sapiens, UniProt Q06187). The experiment in a line: poly (Glu, Tyr) 4:1 ELISA, BTK. In kind it is biochemical. The protocol: (§5) To further examine the inhibition characteristics of DBH (and its variants) to a variety of cellular components, a poly (Glu, Tyr) 4:1 ELISA was performed. Hymenialdisine (H), DBH (as marine sponge extracts: see Chipman and Faulkner, 1997), and three variant forms of synthetic DBH: the free base form of DBH (DBH-2FB), a trifluoroacetic acid salt form of DBH (DBH-2S), and a methanesulfonic acid salt form of DBH (DBH 1) were solubilized in DMSO, and tested for the ability to inhibit; ZAP-70 (ζ-associated polypeptide of 70 kDa) protein tyrosine kinase, BTK (Bruton's agarnrnaglobulinaemia tyrosine kinase), JAK3 (Janus kinase 3) protein tyrosine kinase, LCK (Lymphoid T-cell protein tyrosine kinase), and IGFR (Insulin-like growth factor receptor) protein tyrosine kinase.
(§6) Maxisorb microtiter plates (Nalge Nunc International, Rochester, N.Y.) were coated with 1 mg/ml Poly(Glu,Tyr) 4:1 (Sigma, St. Louis, Mo.) solubilized in phosphate buffered saline (PBS), 0.02% sodium azide. On the day of the assay, microtiter plates were washed 4× with TBS-Tween (25 mM Tris pH 8.0, 150 mM NaCl, 0.05% Tween 20) using a Skatron plate washer (Skatron Instruments, Sterling, Va.). 200 μl of sterile blocking buffer (3% BSA in PBS, 0.02% sodium azide) was added to each well, and the microtiter plates were incubated at 37° C. for 1 hour. The blocking buffer was removed, the plates washed, and various concentrations of inhibitor were added in a 20 μl volume to the wells. 60 μl of the appropriate substrate mix was then added. Substrate mixes were prepared as described in Table 2:
(§7) Following addition of the substrate mix, 20 μl of the test protein tyrosine kinase (in 1× assay buffer) was added. Kinase reactions were incubated 30 min at 37° C., followed by washes in the Skatron plate washer. 100 μl of biotinylated PT-66 anti-phosphotyrosine monoclonal antibody (Sigma, St. Louis, Mo.) (diluted 1:4000 in 0.5% BSA, sterile-filtered TBS) was added to each well, and incubated for an additional 30 minutes at 37° C. […] The samples were then read at 450 nm in a plate reader.

Assay [3] has as its target LCK (Lymphoid T-cell protein tyrosine kinase) (Homo sapiens, UniProt P06239). The experiment in a line: poly (Glu, Tyr) 4:1 ELISA, LCK. Type of assay: biochemical. The protocol: as §5, §6, §7
Assay [4] concerns cyclooxygenase II (COX2) mRNA. The experiment in a line: northern blot, IL-1β-induced mRNA in human articular chondrocytes: COX2. In kind it is cell-based. The following applies: 5 μM, 2 ng/ml rhIL-1β, 24 hours, free base or trifluoroacetic acid salt form. The protocol:
as §1, §2, §3, §4

Assay [5] deals with interleukin-6 (IL-6) mRNA. The experiment in a line: northern blot, IL-1β-induced mRNA in human articular chondrocytes: IL-6. In kind it is cell-based. The note with it: 5 μM, 2 ng/ml rhIL-1β, 24 hours, free base or trifluoroacetic acid salt form. The protocol:
as §1, §2, §3, §4

The mark [6] stands for this setting: ec-50 values ranging from hundreds of micromolar to no inhibition (data not shown).

Molecules are shown by their SMILES. Where only a bound is given, the exact number is not on record here.

BTK (Bruton's agarnrnaglobulinaemia tyrosine kinase), sequence (Q06187 whole entry, species assumed): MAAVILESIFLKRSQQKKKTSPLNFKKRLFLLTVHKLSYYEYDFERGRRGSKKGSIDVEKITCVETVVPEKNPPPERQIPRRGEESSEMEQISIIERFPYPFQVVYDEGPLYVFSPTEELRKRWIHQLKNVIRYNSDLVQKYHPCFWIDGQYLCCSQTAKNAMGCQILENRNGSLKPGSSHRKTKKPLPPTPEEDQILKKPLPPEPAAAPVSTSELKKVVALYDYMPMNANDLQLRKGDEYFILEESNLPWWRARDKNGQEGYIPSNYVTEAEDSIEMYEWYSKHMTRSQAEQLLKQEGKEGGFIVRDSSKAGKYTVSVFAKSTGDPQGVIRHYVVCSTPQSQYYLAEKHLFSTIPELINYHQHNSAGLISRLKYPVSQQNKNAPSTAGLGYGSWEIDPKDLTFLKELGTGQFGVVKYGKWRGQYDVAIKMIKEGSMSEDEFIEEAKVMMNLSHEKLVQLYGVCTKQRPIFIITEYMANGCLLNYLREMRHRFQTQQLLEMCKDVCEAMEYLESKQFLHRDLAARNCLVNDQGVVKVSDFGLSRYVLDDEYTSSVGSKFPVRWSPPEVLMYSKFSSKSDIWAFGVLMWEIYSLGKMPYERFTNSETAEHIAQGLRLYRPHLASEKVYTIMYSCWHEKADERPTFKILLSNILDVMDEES
LCK (Lymphoid T-cell protein tyrosine kinase), sequence (P06239 whole entry, species assumed): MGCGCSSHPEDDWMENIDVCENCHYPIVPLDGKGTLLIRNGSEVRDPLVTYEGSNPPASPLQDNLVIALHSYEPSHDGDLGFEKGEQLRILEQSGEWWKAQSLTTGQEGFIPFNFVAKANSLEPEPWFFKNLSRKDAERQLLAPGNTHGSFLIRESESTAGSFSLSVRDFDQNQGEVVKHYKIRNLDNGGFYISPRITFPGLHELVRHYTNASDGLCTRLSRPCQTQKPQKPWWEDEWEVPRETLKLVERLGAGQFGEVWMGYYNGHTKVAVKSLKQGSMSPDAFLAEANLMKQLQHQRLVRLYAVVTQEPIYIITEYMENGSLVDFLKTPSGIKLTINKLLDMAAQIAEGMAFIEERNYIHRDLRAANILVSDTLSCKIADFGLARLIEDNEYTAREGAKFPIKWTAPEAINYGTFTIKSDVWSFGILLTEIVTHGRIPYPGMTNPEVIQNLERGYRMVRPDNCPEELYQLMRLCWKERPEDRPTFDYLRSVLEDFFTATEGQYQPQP

Regarding `NC1=NC(=O)C(=C2CCNC(=O)c3[nH]ccc32)N1` [DBH-2FB], the “inhibition of rhIL-1β-induced mRNAs, compared with the trifluoroacetic acid salt form” value in assay [1] is “to a greater extent than the trifluoroacetic acid salt form of DBH”. In addition, the IC50 in assay [2] (values for the four kinases range from 1971 μM to no inhibition, read-out: α-50 value for BTK) was not below 1.97 mM; in assay [3] (values for the four kinases range from 1971 μM to no inhibition, read-out: α-50 value for LCK), not below 1.97 mM.

For the compound `NC1=NC(=O)C(=C2CCNC(=O)c3[nH]ccc32)N1` [DBH, 4-(2-amino-4-oxo-2-imidazolin-5-ylidene)-4,5,6,7-tetrahydropyrrolo(2,3-c) azepine-8-one], the “inhibition of IL-1β-induced upregulation of cyclooxygenase II (COX2) mRNA” value in assay [4] was “inhibit to various degrees”. Moreover, the “inhibition of IL-1β-induced upregulation of interleukin-6 (IL-6) mRNA” value in assay [5] is given as “inhibit to various degrees”. Besides, the “Inhibition of BTK” value in assay [2] (setting [6]) was “weak”. In assay [3] (setting [6]), the “Inhibition of LCK” value is given as “weak”.
